Assay results as given in patent EP0364819A2, “LHRH analogs” (The Administrators of The Tulane Educational Fund, priority 1988, dated 1990).
Each block holds one substance with its values, some of them ahead of it.

How the values were obtained:
[1] = test system: dispersed rat pituitary cell superfusion system; experiment: LH release in dispersed rat pituitary cell superfusion system (LHRH agonistic activity); type: cell-based; conditions: peptide infused for 3 minutes at various concentration; LH released compared to that released by 3 nM LHRH
Procedure: The ability of compounds to influence LH release in vitro is assayed by using a superfused rat pituitary cell system [S. Vigh and A. V. Schally, Peptides, 5 Suppl.
The peptide was infused for 3 minutes at various concentration, and the amount of LH released was compared to that released by 3 nM LHRH.

[2] = molecular target: T1, membrane receptors of rat pituitary (Rattus norvegicus, UniProt P30969); experiment: Receptor binding to rat pituitary membranes with 125I-labeled [D-Trp6]LHRH; conditions: Table 1, agonistic analogues; high affinity binding sites; pituitary of male rats; ¹²⁵l-labeled [D-Trp⁶]LHRH
T1 construct: membrane receptors of rat pituitary; from tissue; host or cells: rat pituitary membranes
T1 sequence (P30969 1-327): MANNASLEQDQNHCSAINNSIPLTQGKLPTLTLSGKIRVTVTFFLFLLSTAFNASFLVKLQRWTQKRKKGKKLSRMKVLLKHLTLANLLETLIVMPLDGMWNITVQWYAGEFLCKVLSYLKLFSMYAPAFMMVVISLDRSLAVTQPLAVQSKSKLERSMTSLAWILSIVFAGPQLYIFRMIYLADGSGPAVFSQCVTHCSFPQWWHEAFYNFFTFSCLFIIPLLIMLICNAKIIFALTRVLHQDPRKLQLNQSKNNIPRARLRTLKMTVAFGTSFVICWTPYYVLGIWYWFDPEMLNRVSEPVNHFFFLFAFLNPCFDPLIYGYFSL
Procedure: (§1) This is determined by using labelled LHRH and [D-Trp⁶]LHRH. The assay is carried out similarly to that described by T. Kadar et al., Proc. Natl. Acad. Sci. USA, 85, 890-894 (1988).
(§2) Table 2 presents the antiovulatory activity of the claimed compounds having LHRH-inhibiting properties. The inhibitory action was determined in vivo, in 4-day cycling rats as described [A. Corbin and C. W. Beattie, Endocr. Res. Commun., 2, 1-23 (1975)]. Affinities of the claimed compounds to membrane receptors of rat pituitary and human breast cancer cells are also given in Tables 1 and 2 as determined by using [[…],D-Trp⁶]LHRH.

[3] = molecular target: T2, membrane receptors of human breast cancer cells (Homo sapiens, UniProt P30968); experiment: Receptor binding to human breast cancer cell membranes with 125I-labeled [D-Trp6]LHRH; conditions: Table 1, agonistic analogues, high affinity binding sites, ¹²⁵l-labeled [D-Trp⁶]LHRH
T2 construct: human prostate and breast cancer cell membranes; endogenous in cells
T2 sequence (P30968 1-328): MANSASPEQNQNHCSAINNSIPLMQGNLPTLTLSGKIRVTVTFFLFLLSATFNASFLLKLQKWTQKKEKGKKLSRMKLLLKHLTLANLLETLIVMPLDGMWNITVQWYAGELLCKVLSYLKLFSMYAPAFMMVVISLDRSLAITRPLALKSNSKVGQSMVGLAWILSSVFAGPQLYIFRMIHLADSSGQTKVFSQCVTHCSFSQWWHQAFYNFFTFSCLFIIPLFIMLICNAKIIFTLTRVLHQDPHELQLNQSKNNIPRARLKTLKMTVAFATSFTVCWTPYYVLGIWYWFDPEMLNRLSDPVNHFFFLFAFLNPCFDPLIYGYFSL
Procedure: (c)Affinity for peptides to human prostate and breast cancer cell membranes.
as §1, §2

[4] = test system: rat mammary tumor cell line MT-4; experiment: Inhibition of 3H-thymidine incorporation into DNA of MT-4 monolayer cultures; type: cell-based; conditions: for DPM/Well x1000: mean +/- standard error
Procedure: (d) Ability of peptides of Formula I to inhibit incorporation of [³H]thymidine into DNA of monolayer cultures the rat mammary tumor cell line MT-4
This is assayed as described [V. K. Sondak et al., Cancer Research, 44, 1725-1728 (1984); F. Holzel et al., J. Cancer Res. Clin. Oncol. 109, 217-226 (1985); M. Albert et al., J. Cancer Res. Clin. Oncol. 109, 210-216 (1985)].
To obtain information about the cytotoxic properties of the compounds, the inhibition of ³H-thymidine incorporation into DNA of monolayer cultures of the rat mammary tumor cell line MT-4 was studied. Experiments started with 100 K MT-4 cells/plate on day 0. Dose was changed 3 times, total incubation time with the sample was 5 days. 1µCu ³H-thymidine/ml was added on day 4.

[5] = DME Medium + 0% Serum (plus additives), Dose 1 ng/ml (6x10⁻¹⁰M)
[6] = DME Medium + 0% Serum (plus additives), Dose 10 ng/ml
[7] = DME Medium + 0% Serum (plus additives), Dose 100 ng/ml
[8] = DME Medium + 0% Serum (plus additives), Dose 1000 ng/ml
[9] = DME Medium + 0% Serum (plus additives), Dose 2000 ng/ml
[10] = DME Medium + 10% Serum, Dose 1 ng/ml (6x10⁻¹⁰M)
[11] = DME Medium + 10% Serum, Dose 10 ng/ml
[12] = DME Medium + 10% Serum, Dose 100 ng/ml
[13] = DME Medium + 10% Serum, Dose 1000 ng/ml
[14] = DME Medium + 10% Serum, Dose 2000 ng/ml

Substance: pGlu-His-Trp-Ser-Tyr-D-Lys[(Cu⁺⁺)(POL)₂(DL-A₂bu)]-Leu-Arg-Pro-Gly-NH₂ [XXV]
- Hormonal activity* LH responses rel. to LHRH (= 1) [1]: 5.5
- Binding affinity, Ka1, for membrane receptors of pituitary [2]: 6.405 nM⁻¹
- Binding affinity, Ka1, for membrane receptors of cancer cells [3]: 3.141 nM⁻¹

Substance: pGlu-His-Trp-Ser-Tyr-D-Lys[(Cu⁺⁺)(POLP)₂(DL-A₂bu)]-Leu-Arg-Pro-Gly-NH₂ [Example XVI]
- Hormonal activity* LH responses rel. to LHRH (= 1) [1]: 1.5
- Binding affinity, Ka1, for membrane receptors of pituitary [2]: 9.751 nM⁻¹
- Binding affinity, Ka1, for membrane receptors of cancer cells [3]: 5.038 nM⁻¹

Substance: pGlu-His-Trp-Ser-Tyr-D-Lys[(Cu⁺⁺)(SAL) 2(A₂pr)]-Leu-Arg-Pro-Gly-NH₂ [VIA]
- Hormonal activity* LH responses rel. to LHRH (= 1) [1]: 12
- Binding affinity, Ka1, for membrane receptors of pituitary [2]: 3.051 nM⁻¹
- Binding affinity, Ka1, for membrane receptors of cancer cells [3]: 1.348 nM⁻¹

Substance: pGlu-His-Trp-Ser-Tyr-D-Lys[(Cu⁺⁺)(SAL) ₂(A₂pr)]-Leu-Arg-Pro-Gly-NH₂ [Example VII]
- Hormonal activity* LH responses rel. to LHRH (= 1) [1]: 10
- Binding affinity, Ka1, for membrane receptors of pituitary [2]: 7.968 nM⁻¹
- Binding affinity, Ka1, for membrane receptors of cancer cells [3]: 3.589 nM⁻¹
- %Inhibition [4, 5]: 41%
- DPM/Well x1000 [4, 5]: 249+/-30.5 DPM/Well x1000
- %Inhibition [4, 6]: 42%
- DPM/Well x1000 [4, 6]: 242+/-32.1 DPM/Well x1000
- %Inhibition [4, 7]: 56%
- DPM/Well x1000 [4, 7]: 186+/-13.2 DPM/Well x1000
- %Inhibition [4, 8]: 52%
- DPM/Well x1000 [4, 8]: 204+/-40.9 DPM/Well x1000
- %Inhibition [4, 9]: 41%
- DPM/Well x1000 [4, 9]: 249+/-45.1 DPM/Well x1000
- %Inhibition [4, 10]: 53%
- DPM/Well x1000 [4, 10]: 48+/-8.6 DPM/Well x1000
- %Inhibition [4, 11]: 61%
- DPM/Well x1000 [4, 11]: 40+/-6.7 DPM/Well x1000
- %Inhibition [4, 12]: 59%
- DPM/Well x1000 [4, 12]: 42+/-10.4 DPM/Well x1000
- %Inhibition [4, 13]: 65%
- DPM/Well x1000 [4, 13]: 36+/-5.1 DPM/Well x1000
- %Inhibition [4, 14]: 62%
- DPM/Well x1000 [4, 14]: 39+/-4.6 DPM/Well x1000
- inhibition of ³H-thymidine incorporation into DNA ([4]; at a concentration of 6x10.⁻¹⁰ M, total incubation time 5 days): strong inhibitory effect

Substance: pGlu-His-Trp-Ser-Tyr-D-Lys[(Cu⁺⁺)(SAL)₂(DL-A₂bu)]-Leu-Arg-Pro-Gly-NH₂ [XIV]
- Hormonal activity* LH responses rel. to LHRH (= 1) [1]: 25
- Binding affinity, Ka1, for membrane receptors of pituitary [2]: 5.589 nM⁻¹
- Binding affinity, Ka1, for membrane receptors of cancer cells [3]: 1.628 nM⁻¹

Substance: pGlu-His-Trp-Ser-Tyr-D-Lys[(Ni⁺⁺)(SAL) 2(A₂pr)]-Leu-Arg-Pro-Gly-NH₂ [VIIIA]
- Hormonal activity* LH responses rel. to LHRH (= 1) [1]: 12
- Binding affinity, Ka1, for membrane receptors of pituitary [2]: 9.710 nM⁻¹
- Binding affinity, Ka1, for membrane receptors of cancer cells [3]: 5.234 nM⁻¹

More lines, main results first:

- Binding affinity, Ka1, for membrane receptors of pituitary [2]: 6.457 nM⁻¹
- Binding affinity, Ka1, for membrane receptors of cancer cells [3]: 3.334 nM⁻¹
Substance: pGlu-His-Trp-Ser-Tyr-D-Lys[(Ni⁺⁺)(SAL)₂(D-A₂pr)]-Leu-Arg-Pro-Gly-NH₂ [VIIIB]
- Hormonal activity* LH responses rel. to LHRH (= 1) [1]: 10

- Binding affinity, Ka1, for membrane receptors of pituitary [2]: 3.285 nM⁻¹
- Binding affinity, Ka1, for membrane receptors of cancer cells [3]: 1.743 nM⁻¹
Substance: pGlu-His-Trp-Ser-Tyr-D-Lys[(PtCl₂)(DL-A₂pr)]-Leu-Arg-Pro-Gly-NH₂ [Example III]
- Hormonal activity* LH responses rel. to LHRH (= 1) [1]: 55

- Binding affinity, Ka1, for membrane receptors of pituitary [2]: 5.817 nM⁻¹
- Binding affinity, Ka1, for membrane receptors of cancer cells [3]: 3.005 nM⁻¹
Substance: pGlu-His-Trp-Ser-Tyr-D-Lys[Cu⁺⁺) POL)₂(DL-A₂pr)]-Leu-Arg-Pro-Gly-NH₂ [XVIII]
- Hormonal activity* LH responses rel. to LHRH (= 1) [1]: 9

- Binding affinity, Ka1, for membrane receptors of pituitary [2]: 8.676 nM⁻¹
- Binding affinity, Ka1, for membrane receptors of cancer cells [3]: 4.528 nM⁻¹
Substance: pGlu-His-Trp-Ser-Tyr-D-Lys[Cu⁺⁺)(POLP) ₂(A₂pr)]-Leu-Arg-Pro-Gly-NH₂ [XIX]
- Hormonal activity* LH responses rel. to LHRH (= 1) [1]: 0.3
